In ChEMBL document CHEMBL4138123, “Design, synthesis and biological evaluation of novel pyrazolochalcones as potential modulators of PI3K/Akt/mTOR pathway and inducers of apoptosis in breast cancer cells” (Eur J Med Chem, 2017):

Key:
Assay type in all cases: functional
MCF7 [1] = test: Cytotoxicity against human MCF7 cells assessed as cell growth at 100 uM after 48 hrs by sulforhodamine B assay relative to control; details: MCF7, 48 h, read-out: Activity
T47D [2] = test: Cytotoxicity against human T47D cells assessed as cell growth at 100 uM after 48 hrs by sulforhodamine B assay relative to control; details: read-out: Activity
ACHN [3] = test: Cytotoxicity against human ACHN cells assessed as cell growth at 1 uM after 48 hrs by sulforhodamine B assay relative to control; details: read-out: Activity
RXF 393 = test: Cytotoxicity against human RXF393 cells assessed as cell growth at 0.01 uM after 48 hrs by sulforhodamine B assay relative to control; details: RXF 393, 48 h, read-out: Activity
NCI-H460 = test: Cytotoxicity against human NCI-H460 cells assessed as cell growth at 0.01 uM after 48 hrs by sulforhodamine B assay relative to control; details: NCI-H460, 48 h, read-out: Activity
NCI-H226 [4] = test: Cytotoxicity against human NCI-H226 cells assessed as cell growth at 0.1 uM after 48 hrs by sulforhodamine B assay relative to control; details: NCI-H226, 48 h, read-out: Activity
SNB-19 = test: Cytotoxicity against human SNB19 cells assessed as cell growth at 0.01 uM after 48 hrs by sulforhodamine B assay relative to control; details: SNB-19, 48 h, read-out: Activity
NCI-H226 [5] = test: Cytotoxicity against human NCI-H226 cells assessed as cell growth at 1 uM after 48 hrs by sulforhodamine B assay relative to control; details: NCI-H226, 48 h, read-out: Activity
Hs-578T = test: Cytotoxicity against human Hs 578T cells assessed as cell growth at 100 uM after 48 hrs by sulforhodamine B assay relative to control; details: read-out: Activity
SR = test: Cytotoxicity against human SR cells assessed as cell growth at 0.01 uM after 48 hrs by sulforhodamine B assay relative to control; details: read-out: Activity
BT-549 [6] = test: Cytotoxicity against human BT549 cells assessed as cell growth at 1 uM after 48 hrs by sulforhodamine B assay relative to control; details: BT-549, 48 h, read-out: Activity
NCI/ADR-RES = test: Cytotoxicity against human NCI/ADR-RES cells assessed as cell growth at 0.1 uM after 48 hrs by sulforhodamine B assay relative to control; details: read-out: Activity
OVCAR-4 [7] = test: Cytotoxicity against human OVCAR4 cells assessed as cell growth at 0.1 uM after 48 hrs by sulforhodamine B assay relative to control; details: OVCAR-4, 48 h, read-out: Activity
BT-549 [8] = test: Cytotoxicity against human BT549 cells assessed as growth inhibition after 48 hrs by sulforhodamine B assay; details: BT-549, 48 h
SK-MEL-5 = test: Cytotoxicity against human SK-MEL-5 cells assessed as cell growth at 10 uM after 48 hrs by sulforhodamine B assay relative to control; details: SK-MEL-5, 48 h, read-out: Activity
NCI-H522 [9] = test: Cytotoxicity against human NCI-H522 cells assessed as growth inhibition after 48 hrs by sulforhodamine B assay; details: NCI-H522, 48 h
BT-549 [10] = test: Cytotoxicity against human BT549 cells assessed as cell growth at 100 uM after 48 hrs by sulforhodamine B assay relative to control; details: BT-549, 48 h, read-out: Activity
MDA-MB-468 [11] = test: Cytotoxicity against human MDA-MB-468 cells assessed as growth inhibition after 48 hrs by sulforhodamine B assay; details: MDA-MB-468, 48 h
A498 = test: Cytotoxicity against human A498 cells assessed as growth inhibition after 48 hrs by sulforhodamine B assay; details: A498, 48 h
U-251 = test: Cytotoxicity against human U251 cells assessed as cell growth at 1 uM after 48 hrs by sulforhodamine B assay relative to control; details: U-251, 48 h, read-out: Activity
OVCAR-5 = test: Cytotoxicity against human OVCAR5 cells assessed as cell growth at 0.1 uM after 48 hrs by sulforhodamine B assay relative to control; details: OVCAR-5, 48 h, read-out: Activity
NCI-H522 [12] = test: Cytotoxicity against human NCI-H522 cells assessed as cell growth at 100 uM after 48 hrs by sulforhodamine B assay relative to control; details: NCI-H522, 48 h, read-out: Activity
MCF7 [13] = test: Cytotoxicity against human MCF7 cells assessed as cell growth at 10 uM after 48 hrs by sulforhodamine B assay relative to control; details: MCF7, 48 h, read-out: Activity
MDA-MB-468 [14] = test: Cytotoxicity against human MDA-MB-468 cells assessed as cell growth at 0.1 uM after 48 hrs by sulforhodamine B assay relative to control; details: MDA-MB-468, 48 h, read-out: Activity
ACHN [15] = test: Cytotoxicity against human ACHN cells assessed as cell growth at 100 uM after 48 hrs by sulforhodamine B assay relative to control; details: read-out: Activity
A549 [16] = test: Cytotoxicity against human A549/ATCC cells assessed as cell growth at 100 uM after 48 hrs by sulforhodamine B assay relative to control; details: A549, 48 h, read-out: Activity
OVCAR-4 [17] = test: Cytotoxicity against human OVCAR4 cells assessed as cell growth at 10 uM after 48 hrs by sulforhodamine B assay relative to control; details: OVCAR-4, 48 h, read-out: Activity
T47D [18] = test: Cytotoxicity against human T47D cells assessed as cell growth at 10 uM after 48 hrs by sulforhodamine B assay relative to control; details: read-out: Activity
HOP-62 = test: Cytotoxicity against human HOP62 cells assessed as cell growth at 100 uM after 48 hrs by sulforhodamine B assay relative to control; details: HOP-62, 48 h, read-out: Activity
A549 [19] = test: Cytotoxicity against human A549/ATCC cells assessed as cell growth at 10 uM after 48 hrs by sulforhodamine B assay relative to control; details: A549, 48 h, read-out: Activity
Malme-3M = test: Cytotoxicity against human MALME-3M cells assessed as cell growth at 10 uM after 48 hrs by sulforhodamine B assay relative to control; details: read-out: Activity
MOLT-4 = test: Cytotoxicity against human MOLT4 cells assessed as cell growth at 0.1 uM after 48 hrs by sulforhodamine B assay relative to control; details: MOLT-4, 48 h, read-out: Activity
PC-3 = test: Cytotoxicity against human PC3 cells assessed as cell growth at 100 uM after 48 hrs by sulforhodamine B assay relative to control; details: PC-3, 48 h, read-out: Activity
HT-29 = test: Cytotoxicity against human HT-29 cells assessed as growth inhibition after 48 hrs by sulforhodamine B assay; details: HT-29, 48 h
HCC 2998 = test: Cytotoxicity against human HCC2998 cells assessed as cell growth at 100 uM after 48 hrs by sulforhodamine B assay relative to control; details: HCC 2998, 48 h, read-out: Activity
ACHN [20] = test: Cytotoxicity against human ACHN cells assessed as cell growth at 0.1 uM after 48 hrs by sulforhodamine B assay relative to control; details: read-out: Activity

COc1cc2c(cc1OC)C(=O)/C(=C/c1cc(-c3ccc4c(c3)OCO4)n[nH]1)C2
growth at 100 µM (MCF7 [1]): -72%
growth at 100 µM (T47D [2]): -93%
growth at 1 µM (ACHN [3]): 94%
growth at 0.01 µM (RXF 393): 97%
growth at 0.01 µM (NCI-H460): 99%
growth at 0.1 µM (NCI-H226 [4]): 83%
growth at 0.01 µM (SNB-19): 97%
growth at 1 µM (NCI-H226 [5]): 79%
growth at 100 µM (Hs-578T): -15%
growth at 0.01 µM (SR): 97%
growth at 1 µM (BT-549 [6]): 88%
growth at 0.1 µM (NCI/ADR-RES): 100%
growth at 0.1 µM (OVCAR-4 [7]): 98%
GI50 (BT-549 [8]): 1620 nM
LC50 (concentration killing 50% of cells) (BT-549 [8]): 5710 nM
TGI (BT-549 [8]): 3040 nM
growth at 10 µM (SK-MEL-5): -98%
GI50 (NCI-H522 [9]): 250 nM
LC50 (NCI-H522 [9]): 3920 nM
TGI (NCI-H522 [9]): 871 nM
growth at 100 µM (BT-549 [10]): -87%
GI50 (MDA-MB-468 [11]): 1070 nM
LC50 (MDA-MB-468 [11]): 5440 nM
TGI (MDA-MB-468 [11]): 2410 nM
GI50 (A498): 1330 nM
LC50 (A498): 6000 nM
TGI (A498): 2830 nM
growth at 1 µM (U-251): 56%
growth at 0.1 µM (OVCAR-5): 92%
growth at 100 µM (NCI-H522 [12]): -92%
growth at 10 µM (MCF7 [13]): -84%
growth at 0.1 µM (MDA-MB-468 [14]): 83%
growth at 100 µM (ACHN [15]): -89%
growth at 100 µM (A549 [16]): -65%
growth at 10 µM (OVCAR-4 [17]): -96%
growth at 10 µM (T47D [18]): -90%
growth at 100 µM (HOP-62): -92%
growth at 10 µM (A549 [19]): -30%
growth at 10 µM (Malme-3M): -70%
growth at 0.1 µM (MOLT-4): 99%
growth at 100 µM (PC-3): -79%
GI50 (HT-29): 1450 nM
LC50 (HT-29): 6630 nM
TGI (HT-29): 3090 nM
growth at 100 µM (HCC 2998): -94%
growth at 0.1 µM (ACHN [20]): 100%

COc1ccc(-c2cc(/C=C/C(=O)c3ccc(OC)c(OC)c3)[nH]n2)cc1
growth at 100 µM (MCF7 [1]): -100%
growth at 100 µM (T47D [2]): -83%
growth at 1 µM (ACHN [3]): 82%
growth at 0.01 µM (RXF 393): 82%
growth at 0.01 µM (NCI-H460): 100%
growth at 0.1 µM (NCI-H226 [4]): 90%
growth at 0.01 µM (SNB-19): 96%
growth at 1 µM (NCI-H226 [5]): 76%
growth at 100 µM (Hs-578T): -26%
growth at 0.01 µM (SR): 100%
growth at 1 µM (BT-549 [6]): 85%
growth at 0.1 µM (NCI/ADR-RES): 107%
growth at 0.1 µM (OVCAR-4 [7]): 77%
GI50 (BT-549 [8]): 1680 nM
LC50 (concentration killing 50% of cells) (BT-549 [8]): 7400 nM
TGI (BT-549 [8]): 3530 nM
growth at 10 µM (SK-MEL-5): -66%
GI50 (NCI-H522 [9]): 410 nM
LC50 (NCI-H522 [9]): 5910 nM
TGI (NCI-H522 [9]): 1390 nM
growth at 100 µM (BT-549 [10]): -99%
GI50 (MDA-MB-468 [11]): 1220 nM
LC50 (MDA-MB-468 [11]): 7120 nM
TGI (MDA-MB-468 [11]): 2940 nM
GI50 (A498): 1420 nM
LC50 (A498): 8870 nM
TGI (A498): 3550 nM
growth at 1 µM (U-251): 57%
growth at 0.1 µM (OVCAR-5): 89%
growth at 100 µM (NCI-H522 [12]): -81%
growth at 10 µM (MCF7 [13]): -82%
growth at 0.1 µM (MDA-MB-468 [14]): 90%
growth at 100 µM (ACHN [15]): -98%
growth at 100 µM (A549 [16]): -45%
growth at 10 µM (OVCAR-4 [17]): -27%
growth at 10 µM (T47D [18]): -28%
growth at 100 µM (HOP-62): -71%
growth at 10 µM (A549 [19]): -23%
growth at 10 µM (Malme-3M): -70%
growth at 0.1 µM (MOLT-4): 108%
growth at 100 µM (PC-3): -90%
GI50 (HT-29): 1550 nM
LC50 (HT-29): 7680 nM
TGI (HT-29): 3450 nM
growth at 100 µM (HCC 2998): -95%
growth at 0.1 µM (ACHN [20]): 96%
